Activity calls are given as the source filed them.
Tests used:
Assay type in all cases: functional, cell-based
SK-HEP1 [1] = assay: Downregulation of vimentin expression in human SK-HEP1 cells at 1 to 25 uM by Western blot analysis; conditions: dose 1-25 µM
SK-HEP1 [2] = assay: Downregulation of fibronectin expression in human SK-HEP1 cells at 1 to 25 uM by Western blot analysis; conditions: dose 1-25 µM
HCCLM3 = assay: Upregulation of let-7 expression in human HCCLM3 cells at 10 uM by qRT-PCR analysis

Measured: Activity

CCOC(=O)c1nc(-c2ccc(OC)cc2)oc1C
active: all assays above

— ChEMBL document CHEMBL5137049, “Discovery of a Novel Small-Molecule Inhibitor Disrupting TRBP-Dicer Interaction against Hepatocellular Carcinoma via the Modulation of microRNA Biogenesis” (J Med Chem, 2022)
